Legend:
[1] = tested on: human umbilical vein endothelial cells; experiment: Cell viability assay of human umbilical vein endothelial cells; format: cell-based; conditions: 24 hours
Experimental: A medium in a culturing plate containing cells grown covering the whole bottom of the culturing plate, was removed. The cells were washed with 10 ml of PBS, and then suspended and mixed well with 10 ml of medium (a part of the cells need to be suspended with Trypsin-EDTA buffer). The numbers of the cells were calculated by a hemocytometer, and the cells were diluted to an appropriate cell concentration and added into the wells of a 24 well culturing plate by an amount of 500 μl/well. The 24 well culturing plates were placed in an incubator at 37° C. in a humidified atmosphere containing 5% CO2. After the cells were attached onto the bottom of the wells, the medium in each well was removed, and fresh mediums with different concentrations of a test drug were added into wells, respectively (if the cells were suspension cells, the fresh medium may be added into the wells, directly). Then, the 24 well culturing plates were placed in an incubator at 37° C. in a humidified atmosphere containing 5% CO2 for 24 hours. After that, an upper medium in each well was removed. The cells were washed with a PBS buffer twice, and then an MTT solution which was prepared with a medium was added to each well. After the 24 well culturing plates were placed in an incubator at 37° C. for reacting 4-6 hours, an upper medium in each well was removed, and 100 μl of DMSO was added to each well to solubilize the formazan precipitates. After that, an ELISA reader was used to determine the absorbance for each well at 600 nm.
After human umbilical vein endothelial cells were treated with the different concentrations of L-Aspartic acid β-hydroxamate (CH) and different concentrations of L-Glutamic acid γ-hydroxamate (DH) for 24 hours, respectively, the cell viability assays were performed to the treated human umbilical vein endothelial cells and the angiogenesis conditions of the human umbilical vein endothelial cells were recorded. The results of the cell viability assays are shown as FIGS. 13 (A) and 14 (A). Photographs for the human umbilical vein endothelial cells treated with L-Aspartic acid β-hydroxamate (CH) and human umbilical vein endothelial cells treated with L-Glutamic acid γ-hydroxamate (DH) are shown as FIGS. 13 (B) and 14 (B), respectively.

[2] = tested on: human umbilical vein endothelial cells; experiment: Tube formation assay (angiogenesis); format: cell-based
Experimental: 13. Tube Formation Assay (Malinda et al., 1999)
1μ-Slide Angiogenesis ibiTreat chambers were coated with 10 μl Matrigel™ Mixtrix and placed in an incubator at 37° C. for 1 hour. 40 μl of a 3×10^5 cells/ml cell suspension was added to each chamber and left still for 20 minutes to let the cells attach to the chamber. After that, the medium in each chamber was removed. Fresh mediums with different concentrations of a test drug were added to the chambers, respectively and placed in an incubator at 37° C. After 18 hours, the angiogenesis appearance in each chamber was observed and photographed for recording.

B16-F10 cell line = experiment: Tumor metastasis in an animal model (lung metastasis induced by B16-F10); format: in vivo, C57BL/6 mice; conditions: mice, 50 mg/kg/day, 21 days
Experimental: 12. Tumor Metastasis in an Animal Model (Itoh et al., 2005; Lee et al., 2005; Ouyang et al., 2005; Zhang et al., 2005)
Experimental animal: C57BL/6, gray-brown fur
C57BL/6 mice were injected with 2×10^5 cells/0.1 ml of a B16-F10 cell line by a tail intravenous injection. Then, on the next day the mice were injected with a physiological saline solution or 50 mg/kg drug, daily, for 3 weeks. The mice were sacrificed and their lungs were removed at the third week. The lungs were washed with a PBS buffer and fixed with Bouin's solution.

[3] = target: T1, matrix metalloproteinase-2 (Homo sapiens, UniProt P08253); experiment: Extracellular inhibition test on enzyme activity of secreted MMP-2 in cultured medium; format: biochemical; conditions: cultured medium of PMA induced HT 1080, different concentrations, 24 hours
T1 construct: matrix metalloproteinase-2 and matrix metalloproteinase-9 were secreted from the PMA induced HT 1080; endogenous in cells; host or cells: HT 1080 cells induced with 100 nM PMA
T1 sequence (P08253 110-660): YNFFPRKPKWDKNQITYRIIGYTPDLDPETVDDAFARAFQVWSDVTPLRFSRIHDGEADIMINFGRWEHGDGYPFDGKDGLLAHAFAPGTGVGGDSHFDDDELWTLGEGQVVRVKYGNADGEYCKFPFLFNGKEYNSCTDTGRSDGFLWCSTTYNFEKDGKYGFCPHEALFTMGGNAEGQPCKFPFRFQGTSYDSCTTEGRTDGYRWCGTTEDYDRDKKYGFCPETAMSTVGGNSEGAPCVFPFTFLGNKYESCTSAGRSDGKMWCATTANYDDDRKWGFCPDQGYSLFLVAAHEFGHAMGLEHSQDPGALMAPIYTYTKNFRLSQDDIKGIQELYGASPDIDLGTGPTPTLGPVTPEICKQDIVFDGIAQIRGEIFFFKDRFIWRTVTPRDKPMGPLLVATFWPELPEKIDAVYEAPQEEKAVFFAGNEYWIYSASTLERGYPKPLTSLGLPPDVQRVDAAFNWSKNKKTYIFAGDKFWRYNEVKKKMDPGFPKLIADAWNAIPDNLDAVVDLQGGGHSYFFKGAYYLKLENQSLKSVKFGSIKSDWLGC
Experimental: HT 1080 cells with appropriate cell numbers were cultured in 60 mm culturing plates for 12 hours, respectively. After the cells were attached onto the bottom of the plate and formed a monolayer, the medium in the plate was removed. Fresh serum free mediums with different concentrations of a test sample were added to the plates, respectively, and 100 nM PMA was added to each plate to induce the cells to express great quantities of matrix metalloproteinase-2 and matrix metalloproteinase-9, and the plates were placed in a temperature of 37° C. for 24 hours. After centrifugation, each cultured supernatant were saved and mixed with SDS-sample buffer under the same protein contents which were then injected into a 10% SDS-polyacrylamide gel (containing 1 mg/ml gelatin) and then electrophoresed. After the electrophoresis was completed, the gel was taken out and washed with 20 mM Tris-HCl containing 25% isopropanol three times; 10 minutes per time. […]
HT 1080 cells were induced with PMA, and the cultured medium for culturing the HT 1080 cells therefrom was taken out and treated with the different concentrations of L-Glutamic acid γ-hydroxamate (DH) for 24 hours, respectively. After that the enzyme activities of the matrix metalloproteinase-2 and matrix metalloproteinase-9 in the medium were analyzed. […]

In the case of NC(CCC(=O)NO)C(=O)O [DH, L-Glutamic acid γ-hydroxamate], the “cytotoxicity to human umbilical vein endothelial cells” value ([1]; 0.25 mM) is reported as “no cytotoxicity”, the “viability of human umbilical vein endothelial cells” value ([1]; 0.75 mM) is reported as “slight decreases” and the “inhibition rate to angiogenesis” value ([2]; about 0.1-1.5 mM, stated as embodiment) is reported as 10-90%. For the same molecule, the “angiogenesis compared with the control group” value ([2]; increasing concentrations) was “significantly inhibited”, the “lung metastasis and amount of metastasized pulmonary nodules” value (B16-F10 cell line) was “significantly decreased” and the lung weight (B16-F10 cell line) was “recovered to a level similar to that of the control group”. The “pathological symptoms (fur picking, weight loss, hind limb debility) due to cancer metastasis, compared to blank group” value (B16-F10 cell line) was “decreased”, the “survival till the end of the experiment” value (B16-F10 cell line; blank group 2 of 6 survived) was “six mice all survived” and the “direct inhibition of enzyme activity of secreted matrix metalloproteinase-2” value [3] was “no inhibition”.
